Data published in paper PMC10786692 (The Journal of Clinical Investigation, 2024).
Values joined by “and” are separate entries in the source; they are usually repeats but may differ in a detail not shown here. Identical values can stand only once. Like-named read-outs stand apart in the source and are kept apart here.

Assay: Plasma pharmacokinetics of ceralasertib (HPLC-MS/MS, NCA)
Type: in vivo, human
Settings: for half-life: read-out: Mean terminal elimination half-life
Method: Intensive PK sampling in part A occurred after a single dose from predose up to 24 to 72 hours and again at day 15 and day 29 of continuous dosing. Participants fasted for 1 hour before and 2 hours after dosing for PK assessment. In part B, sampling coincided with day 15 PD assessments. Full details are given in Supplemental Methods. […]
Evaluated PK […]
maximum observed plasma concentration (Cmax), time to Cmax (tmax), and apparent terminal half-life (t1/2) calculated as ln/lambda-z where lambda-z (lz) is the apparent terminal phase rate- […]
constant estimated by linear regression of logarithmically-transformed concentration-versus-time data. A minimum of three data points were used in calculating lz as per AstraZeneca standard operating procedures. Data from multiple dosing were used to derive accumulation ratios based on Cmax (Race Cmax) and AUC(0-8) (Rac AUC0-8) defined as the ratio between Cmax or AUC(0-8) after multiple dose and Cmax and AUC(0-8) at day 1. All PK parameters for […]
WinNonLin v8.3 software or higher where the ‘linear up/log down trapezoidal rule’ for AUC was […]
applied. […]

[1] = human, plasma, oral, 240 mg, 240 mg day 0, read-out: Plasma concentration, individual patients
[2] = human, plasma, oral, 240 mg, 240 mg day 15, read-out: Plasma concentration, individual patients

C[C@@H]1COCCN1c1cc(C2([S@](C)(=N)=O)CC2)nc(-c2cc[nH]c3nccc2-3)n1 [ceralasertib]
Plasma concentration, individual patients (40 mg day 1, 24 h): 1220 ng/mL and 677 ng/mL
Plasma concentration, individual patients (80 mg day 0, 0 h, in ng/mL): 0
Plasma concentration, individual patients (80 mg day 0, 0.5 h): 0 ng/mL
Plasma concentration, individual patients (80 mg day 0, 2 h): 2900 ng/mL and 1130 ng/mL and 2000 ng/mL and 4130 ng/mL and 1950 ng/mL and 3230 ng/mL
Plasma concentration, individual patients (80 mg day 0, 4 h): 2010 ng/mL and 3030 ng/mL and 1520 ng/mL
Plasma concentration, individual patients (80 mg day 0, […], in ng/mL): 0
Plasma concentration, individual patients (80 mg day 1, 0.5 h): 2360 ng/mL and 757 ng/mL and 378 ng/mL and 2950 ng/mL and 1020 ng/mL and 1250 ng/mL
Plasma concentration, individual patients (80 mg day 1, 1 h): 4420 ng/mL and 1340 ng/mL and 816 ng/mL and 2960 ng/mL and 939 ng/mL and 2250 ng/mL
Plasma concentration, individual patients (80 mg day 1, 2 h): 3650 ng/mL and 1700 ng/mL and 1500 ng/mL and 2460 ng/mL and 1310 ng/mL and 2040 ng/mL
Plasma concentration, individual patients (80 mg day 1, 4 h): 3230 ng/mL and 1160 ng/mL and 3200 ng/mL
Oral absorption (all doses, single and multiple dose): rapidly orally absorbed
concentration at 0 h (human, plasma, oral, 20 mg, 20 mg day 0, 0 h, read-out: Plasma concentration, individual patients): 0 ng/mL
concentration at 4 h (human, plasma, oral, 20 mg, 20 mg day 0, 4 h, read-out: Plasma concentration, individual patients): 885 ng/mL
concentration at 8 h (human, plasma, oral, 20 mg, 20 mg day 0, read-out: Plasma concentration, individual patients): 562 ng/mL
concentration at 2 h (human, plasma, oral, 20 mg, 20 mg day 1, 2 h, read-out: Plasma concentration, individual patients): 757 ng/mL
concentration at 4 h (human, plasma, oral, 20 mg, 20 mg day 1, 4 h, read-out: Plasma concentration, individual patients): 1020 ng/mL
concentration at 8 h (human, plasma, oral, 20 mg, 20 mg day 1, read-out: Plasma concentration, individual patients): 618 ng/mL
concentration at 2 h (human, plasma, oral, 40 mg, 40 mg day 0, 2 h, read-out: Plasma concentration, individual patients): 2220 ng/mL
concentration at 4 h (human, plasma, oral, 40 mg, 40 mg day 0, 4 h, read-out: Plasma concentration, individual patients): 1450 ng/mL
concentration at 8 h (human, plasma, oral, 40 mg, 40 mg day 0, read-out: Plasma concentration, individual patients): 1010 ng/mL
concentration at 24 h (human, plasma, oral, 40 mg, 40 mg day 0, 24 h, read-out: Plasma concentration, individual patients): 203 ng/mL
concentration at 1 h (human, plasma, oral, 40 mg, 40 mg day 1, 1 h, read-out: Plasma concentration, individual patients): 2490 ng/mL
concentration at 2 h (human, plasma, oral, 40 mg, 40 mg day 1, 2 h, read-out: Plasma concentration, individual patients): 2290 ng/mL
concentration at 4 h (human, plasma, oral, 40 mg, 40 mg day 1, 4 h, read-out: Plasma concentration, individual patients): 1640 ng/mL
concentration at 8 h (human, plasma, oral, 40 mg, 40 mg day 1, read-out: Plasma concentration, individual patients): 996 ng/mL
concentration at 24 h (human, plasma, oral, 40 mg, 40 mg day 1, 24 h, read-out: Plasma concentration, individual patients): 1150 ng/mL
concentration at 0 h (human, plasma, oral, 80 mg, 80 mg day 0, 0 h, read-out: Plasma concentration, individual patients): 0 ng/mL
concentration at […] (human, plasma, oral, 80 mg, 80 mg day 0, […], read-out: Plasma concentration, individual patients): 0 ng/mL
concentration at 0 h (human, plasma, oral, 160 mg, 160 mg day 0, 0 h, read-out: Plasma concentration, individual patients): 0 ng/mL
concentration at 0 h (human, plasma, oral, 240 mg, 240 mg day 0, 0 h, read-out: Plasma concentration, individual patients): 0 ng/mL
concentration at 8 h [1]: 4640 ng/mL
concentration at 12 h [1]: 4200 ng/mL
concentration at 0 h (human, plasma, oral, 240 mg, 240 mg day 15, 0 h, read-out: Plasma concentration, individual patients): 8530 ng/mL
concentration at 0.5 h (human, plasma, oral, 240 mg, 240 mg day 15, 0.5 h, read-out: Plasma concentration, individual patients): 13500 ng/mL
concentration at 1 h (human, plasma, oral, 240 mg, 240 mg day 15, 1 h, read-out: Plasma concentration, individual patients): 17000 ng/mL
concentration at 4 h (human, plasma, oral, 240 mg, 240 mg day 15, 4 h, read-out: Plasma concentration, individual patients): 13500 ng/mL
concentration at 8 h [2]: 10200 ng/mL
concentration at 12 h [2]: 9080 ng/mL
concentration at […] (human, plasma, oral, 240 mg, 240 mg day 15, […], read-out: Plasma concentration, individual patients): 11200 ng/mL
half-life (human, plasma, oral, 40 and 80 mg dose levels): 318 to 462 min
half-life (human, plasma, oral, 160 and 240 mg dose levels): 672 to 768 min
Tmax (human, plasma, oral, all doses, single and multiple dose, read-out: Median time to peak drug concentration (tmax)): 0.5 to 4 h
Exposure versus dose (single dosing, 80 to 240 mg): increased approximately proportionally
